Active and inactive are the calls of the source.
Key:
HeLa = test: ATP-based viability loss in HeLa cells – cell-based, CellTiter-Glo luminescence, cherry-pick samples, cytotoxicity control for MITF activator project, dose response (AID 540259); type: functional; settings: Homo sapiens
CAAX prenyl protease 2 [1] = target: T1, CAAX prenyl protease 2 (Saccharomyces cerevisiae S288c, UniProt Q03530); type: biochemical
T1 sequence (Q03530 whole entry): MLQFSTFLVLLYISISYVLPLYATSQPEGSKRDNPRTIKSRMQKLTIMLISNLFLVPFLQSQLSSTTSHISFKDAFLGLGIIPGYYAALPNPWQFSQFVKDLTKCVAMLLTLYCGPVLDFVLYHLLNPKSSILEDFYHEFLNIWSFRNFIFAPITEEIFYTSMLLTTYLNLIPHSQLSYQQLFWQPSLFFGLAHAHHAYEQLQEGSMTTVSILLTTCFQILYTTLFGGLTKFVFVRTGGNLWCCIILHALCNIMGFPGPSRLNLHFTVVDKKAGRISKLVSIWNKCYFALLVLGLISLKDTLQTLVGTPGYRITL

CAAX prenyl protease 2 [2] = target: CAAX prenyl protease 2 (Homo sapiens, UniProt Q9Y256); test: inhibition of Ras-converting CAAX protease Rce1 – biochemical, yeast membranes, quenched-peptide fluorescence, cherry-pick, dose response (AID 588849)
CAAX prenyl protease 2 (Homo sapiens, UniProt Q9Y256), sequence (Q9Y256 whole entry): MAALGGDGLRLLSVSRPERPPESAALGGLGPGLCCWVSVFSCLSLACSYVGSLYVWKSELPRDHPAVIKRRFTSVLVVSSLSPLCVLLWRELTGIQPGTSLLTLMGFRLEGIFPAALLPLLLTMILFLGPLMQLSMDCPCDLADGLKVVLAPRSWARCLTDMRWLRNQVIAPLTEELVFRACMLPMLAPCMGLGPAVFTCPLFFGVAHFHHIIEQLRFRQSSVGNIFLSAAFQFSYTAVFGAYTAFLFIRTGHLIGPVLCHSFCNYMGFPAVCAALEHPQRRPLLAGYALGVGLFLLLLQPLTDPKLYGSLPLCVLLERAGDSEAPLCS

Trypsin = Trypsin (Sus scrofa, UniProt P00761); test: trypsin protease activity blockade – biochemical, quenched peptide fluorescence, cherry-pick, selectivity assay for Rce1 protease inhibitor project, dose response (AID 488789)
Trypsin, sequence (P00761 whole entry): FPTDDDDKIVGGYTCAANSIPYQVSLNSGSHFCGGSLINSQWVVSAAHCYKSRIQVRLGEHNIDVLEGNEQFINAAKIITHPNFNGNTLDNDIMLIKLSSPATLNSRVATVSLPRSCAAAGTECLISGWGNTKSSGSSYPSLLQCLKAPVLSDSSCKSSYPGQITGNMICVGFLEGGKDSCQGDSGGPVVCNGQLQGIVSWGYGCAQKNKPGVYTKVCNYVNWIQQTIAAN

Caspase-6 = target: T2, Caspase-6 (Homo sapiens, UniProt P55212); test: inhibition of CASP6 peptide cleavage – biochemical, VEID-R110 fluorescence, cherry-pick, dose response (AID 720632)
T2 sequence (P55212 whole entry): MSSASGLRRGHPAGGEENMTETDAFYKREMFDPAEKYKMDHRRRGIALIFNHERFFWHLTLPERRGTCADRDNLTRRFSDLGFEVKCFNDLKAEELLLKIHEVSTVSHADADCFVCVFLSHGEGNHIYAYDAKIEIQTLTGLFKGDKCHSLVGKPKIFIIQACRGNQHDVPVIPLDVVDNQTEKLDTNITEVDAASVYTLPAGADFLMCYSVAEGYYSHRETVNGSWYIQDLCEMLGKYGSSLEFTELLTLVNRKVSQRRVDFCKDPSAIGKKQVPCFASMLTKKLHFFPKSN

[3] = target: Beta-2 adrenergic receptor (Homo sapiens, UniProt P07550); test: ADRB2 activation measured by internalization – cell-based, FAP fluorogen, flow cytometry, cherry pick 1, dose response (AID 588763); type: functional
Beta-2 adrenergic receptor, sequence (P07550 whole entry): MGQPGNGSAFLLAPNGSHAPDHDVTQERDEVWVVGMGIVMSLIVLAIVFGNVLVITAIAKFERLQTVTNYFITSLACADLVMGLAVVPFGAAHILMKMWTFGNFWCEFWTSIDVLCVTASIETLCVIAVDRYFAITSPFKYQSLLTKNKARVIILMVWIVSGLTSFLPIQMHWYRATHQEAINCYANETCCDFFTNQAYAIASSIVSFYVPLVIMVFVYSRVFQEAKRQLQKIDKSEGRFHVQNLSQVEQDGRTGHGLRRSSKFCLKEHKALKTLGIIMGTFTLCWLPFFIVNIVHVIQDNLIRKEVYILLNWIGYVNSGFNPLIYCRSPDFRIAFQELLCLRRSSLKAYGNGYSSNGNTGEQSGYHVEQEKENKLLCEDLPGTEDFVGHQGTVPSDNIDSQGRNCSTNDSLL

[4] = target: 5-hydroxytryptamine receptor 5A (Homo sapiens, UniProt P47898); test: Counterscreen for agonists of OPRM1-OPRD1 heterodimerization: luminescence-based cell-based high throughput dose response assay to identify agonists of 5-hydroxytryptamine (serotonin) 5A receptor (HTR5A). [Related pubchem assays (depositor defined):AID504326, AID504355, AID504692, AID504904, AID504905]; type: functional
5-hydroxytryptamine receptor 5A, sequence (P47898 whole entry): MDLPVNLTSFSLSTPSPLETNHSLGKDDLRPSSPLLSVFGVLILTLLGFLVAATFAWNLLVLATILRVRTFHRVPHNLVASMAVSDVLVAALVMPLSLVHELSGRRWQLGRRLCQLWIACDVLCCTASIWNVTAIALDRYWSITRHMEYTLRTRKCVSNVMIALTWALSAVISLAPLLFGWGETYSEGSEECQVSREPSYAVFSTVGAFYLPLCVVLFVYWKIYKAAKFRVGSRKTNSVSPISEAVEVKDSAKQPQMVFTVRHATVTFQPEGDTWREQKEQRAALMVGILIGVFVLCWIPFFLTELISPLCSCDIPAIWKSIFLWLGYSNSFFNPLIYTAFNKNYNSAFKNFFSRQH

[5] = target: T3, Short transient receptor potential channel 4 (Mus musculus, UniProt Q9QUQ5); test: calcium entry via TRPC4 opening agents – cell-based, HEK293 TRPC4/mu-opioid, Fluo-4 calcium, dose response (AID 434937); type: functional
T3 sequence (Q9QUQ5 whole entry): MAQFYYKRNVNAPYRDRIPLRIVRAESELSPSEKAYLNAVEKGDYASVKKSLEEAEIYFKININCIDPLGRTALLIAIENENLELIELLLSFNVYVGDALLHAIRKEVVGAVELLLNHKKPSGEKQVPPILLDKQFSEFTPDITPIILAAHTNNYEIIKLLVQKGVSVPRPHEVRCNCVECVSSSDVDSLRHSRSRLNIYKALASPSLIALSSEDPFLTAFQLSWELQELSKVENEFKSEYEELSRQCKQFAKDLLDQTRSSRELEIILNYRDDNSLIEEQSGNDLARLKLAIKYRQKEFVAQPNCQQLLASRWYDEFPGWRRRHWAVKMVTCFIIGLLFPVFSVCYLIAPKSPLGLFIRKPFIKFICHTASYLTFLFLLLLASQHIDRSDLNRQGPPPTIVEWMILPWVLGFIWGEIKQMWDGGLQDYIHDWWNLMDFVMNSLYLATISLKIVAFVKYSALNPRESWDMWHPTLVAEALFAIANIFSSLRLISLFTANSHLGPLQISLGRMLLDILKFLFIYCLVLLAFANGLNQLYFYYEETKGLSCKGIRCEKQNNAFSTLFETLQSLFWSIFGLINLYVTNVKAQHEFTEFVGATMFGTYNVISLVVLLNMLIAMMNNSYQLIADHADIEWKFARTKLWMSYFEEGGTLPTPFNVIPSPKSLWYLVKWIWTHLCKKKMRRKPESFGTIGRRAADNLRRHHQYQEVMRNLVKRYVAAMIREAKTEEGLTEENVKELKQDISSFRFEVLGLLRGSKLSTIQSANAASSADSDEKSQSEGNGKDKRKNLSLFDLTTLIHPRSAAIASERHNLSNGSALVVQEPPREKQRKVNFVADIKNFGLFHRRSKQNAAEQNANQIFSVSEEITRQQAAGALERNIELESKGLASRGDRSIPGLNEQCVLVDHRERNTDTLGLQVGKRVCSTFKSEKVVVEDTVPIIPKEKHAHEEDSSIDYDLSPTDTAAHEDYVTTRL

[6] = target: Delta-type opioid receptor (Homo sapiens, UniProt P41143); test: Counterscreen for agonists of heterodimerization of the mu 1 (OPRM1) and delta 1 (OPRD1) opioid receptors: Luminescence-based cell-based high throughput dose response assay to identify agonists of OPRD1 homodimerization. [Related pubchem assays (depositor defined):AID504326, AID504355, AID504692, AID504904, AID504905]; type: functional
Delta-type opioid receptor, sequence (P41143 whole entry): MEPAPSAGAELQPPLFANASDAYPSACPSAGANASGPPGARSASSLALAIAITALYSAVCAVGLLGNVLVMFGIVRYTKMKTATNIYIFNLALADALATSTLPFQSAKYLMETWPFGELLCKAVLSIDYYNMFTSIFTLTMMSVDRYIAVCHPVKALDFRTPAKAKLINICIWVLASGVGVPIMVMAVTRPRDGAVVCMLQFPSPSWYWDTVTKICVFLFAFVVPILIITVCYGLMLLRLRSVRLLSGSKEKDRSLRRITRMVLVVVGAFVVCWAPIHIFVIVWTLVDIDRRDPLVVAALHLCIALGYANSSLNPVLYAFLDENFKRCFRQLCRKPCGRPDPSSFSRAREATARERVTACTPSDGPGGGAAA

Mu-type opioid receptor = Mu-type opioid receptor (Homo sapiens, UniProt P35372); test: Counterscreen for agonists of heterodimerization of the mu 1 (OPRM1) and delta 1 (OPRD1) opioid receptors: Luminescence-based cell-based high throughput dose response assay to identify agonists of OPRM1 homodimerization.; type: functional;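 also: U2OS cells expressing OPRM1 and beta-arrestin as split beta-galactosidase partners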
Mu-type opioid receptor, sequence (P35372 whole entry): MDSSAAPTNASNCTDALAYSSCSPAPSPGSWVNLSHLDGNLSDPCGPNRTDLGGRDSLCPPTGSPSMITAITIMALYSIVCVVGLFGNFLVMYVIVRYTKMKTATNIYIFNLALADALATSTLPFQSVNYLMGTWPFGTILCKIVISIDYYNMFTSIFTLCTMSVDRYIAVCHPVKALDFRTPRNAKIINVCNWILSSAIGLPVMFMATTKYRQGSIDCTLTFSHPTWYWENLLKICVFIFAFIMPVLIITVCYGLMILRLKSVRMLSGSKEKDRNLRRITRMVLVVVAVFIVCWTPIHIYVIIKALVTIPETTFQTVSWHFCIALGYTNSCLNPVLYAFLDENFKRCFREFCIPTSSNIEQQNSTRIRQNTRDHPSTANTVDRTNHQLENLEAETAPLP

Caspase-3 [7] = target: T4, Caspase-3 (Homo sapiens, UniProt P42574); test: SAR Analysis of small molecule inhibitors of Sentrin-specific proteases (SENPs) using a Caspase-3 Selectivity assay. [Related pubchem assays (depositor defined):AID2540, AID2599, AID434973, AID489001]; type: functional
T4 sequence (P42574 whole entry): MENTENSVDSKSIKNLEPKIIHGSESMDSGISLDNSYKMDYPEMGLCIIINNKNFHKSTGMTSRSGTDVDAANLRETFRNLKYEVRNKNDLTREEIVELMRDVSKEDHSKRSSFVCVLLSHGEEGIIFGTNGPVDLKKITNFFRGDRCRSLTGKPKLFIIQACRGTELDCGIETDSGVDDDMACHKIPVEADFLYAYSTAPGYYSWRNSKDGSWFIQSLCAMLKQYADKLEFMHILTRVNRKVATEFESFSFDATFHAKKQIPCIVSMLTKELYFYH

[8] = target: T5, Sentrin-specific protease 8 (Homo sapiens, UniProt Q96LD8); type: functional;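 also: luminescence read-out of SENP8 inhibition, dose-response confirmation following an ultra-high-throughput screen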
T5 sequence (Q96LD8 whole entry): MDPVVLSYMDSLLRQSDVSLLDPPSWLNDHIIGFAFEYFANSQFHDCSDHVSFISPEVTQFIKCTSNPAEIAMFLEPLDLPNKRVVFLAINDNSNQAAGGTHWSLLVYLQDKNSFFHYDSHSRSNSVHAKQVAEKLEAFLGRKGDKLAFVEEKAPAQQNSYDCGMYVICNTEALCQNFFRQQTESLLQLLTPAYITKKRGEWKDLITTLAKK

[9] = target: T5, Sentrin-specific protease 8; test: inhibition of human SENP8 cleavage activity – biochemical, luminescence, SAR follow-up (AID 504501); type: functional
[10] = target: T6, Sentrin-specific protease 6 (Homo sapiens, UniProt Q9GZR1); type: functional
T6 sequence (Q9GZR1 whole entry): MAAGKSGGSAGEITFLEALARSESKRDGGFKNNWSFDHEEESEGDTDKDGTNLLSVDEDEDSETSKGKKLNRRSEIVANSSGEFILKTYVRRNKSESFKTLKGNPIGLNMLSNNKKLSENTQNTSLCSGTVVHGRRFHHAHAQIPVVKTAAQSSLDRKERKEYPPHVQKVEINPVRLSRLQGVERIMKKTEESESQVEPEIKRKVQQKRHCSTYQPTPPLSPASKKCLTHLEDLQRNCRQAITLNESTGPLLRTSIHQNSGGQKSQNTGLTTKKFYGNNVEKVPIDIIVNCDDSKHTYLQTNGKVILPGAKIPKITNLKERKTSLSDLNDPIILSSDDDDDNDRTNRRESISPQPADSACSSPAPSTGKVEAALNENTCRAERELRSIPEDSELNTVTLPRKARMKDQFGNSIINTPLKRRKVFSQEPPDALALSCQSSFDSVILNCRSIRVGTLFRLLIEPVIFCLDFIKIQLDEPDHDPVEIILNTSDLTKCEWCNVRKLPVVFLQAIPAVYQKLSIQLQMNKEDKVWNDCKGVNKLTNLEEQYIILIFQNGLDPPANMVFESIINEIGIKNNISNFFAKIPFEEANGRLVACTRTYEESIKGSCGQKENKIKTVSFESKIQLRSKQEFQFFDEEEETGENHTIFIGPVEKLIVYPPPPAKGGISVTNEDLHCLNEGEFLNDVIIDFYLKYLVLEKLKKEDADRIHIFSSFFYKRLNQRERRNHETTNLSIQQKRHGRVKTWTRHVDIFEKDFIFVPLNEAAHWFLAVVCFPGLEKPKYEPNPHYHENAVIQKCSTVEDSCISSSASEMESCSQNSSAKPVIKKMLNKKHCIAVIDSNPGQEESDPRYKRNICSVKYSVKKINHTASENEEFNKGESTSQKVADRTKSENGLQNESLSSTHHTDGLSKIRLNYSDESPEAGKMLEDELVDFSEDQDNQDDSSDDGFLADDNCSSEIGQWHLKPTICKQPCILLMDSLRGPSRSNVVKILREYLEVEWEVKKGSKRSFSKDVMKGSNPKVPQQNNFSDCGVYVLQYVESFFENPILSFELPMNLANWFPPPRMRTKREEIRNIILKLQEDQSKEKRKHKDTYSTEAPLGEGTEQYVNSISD

[11] = target: T6, Sentrin-specific protease 6; test: SAR Analysis of small molecule inhibitors of Sentrin-specific protease 6 (SENP6) using a Luminescent assay. [Related pubchem assays (depositor defined):AID2582, AID2599]; type: functional
[12] = target: T7, Sentrin-specific protease 7 (Homo sapiens, UniProt Q9BQF6); type: functional;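 also: Luminescence-based dose-response confirmation of ultra-high-throughput screening hits, measuring inhibition of SENP7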
T7 sequence (Q9BQF6 whole entry): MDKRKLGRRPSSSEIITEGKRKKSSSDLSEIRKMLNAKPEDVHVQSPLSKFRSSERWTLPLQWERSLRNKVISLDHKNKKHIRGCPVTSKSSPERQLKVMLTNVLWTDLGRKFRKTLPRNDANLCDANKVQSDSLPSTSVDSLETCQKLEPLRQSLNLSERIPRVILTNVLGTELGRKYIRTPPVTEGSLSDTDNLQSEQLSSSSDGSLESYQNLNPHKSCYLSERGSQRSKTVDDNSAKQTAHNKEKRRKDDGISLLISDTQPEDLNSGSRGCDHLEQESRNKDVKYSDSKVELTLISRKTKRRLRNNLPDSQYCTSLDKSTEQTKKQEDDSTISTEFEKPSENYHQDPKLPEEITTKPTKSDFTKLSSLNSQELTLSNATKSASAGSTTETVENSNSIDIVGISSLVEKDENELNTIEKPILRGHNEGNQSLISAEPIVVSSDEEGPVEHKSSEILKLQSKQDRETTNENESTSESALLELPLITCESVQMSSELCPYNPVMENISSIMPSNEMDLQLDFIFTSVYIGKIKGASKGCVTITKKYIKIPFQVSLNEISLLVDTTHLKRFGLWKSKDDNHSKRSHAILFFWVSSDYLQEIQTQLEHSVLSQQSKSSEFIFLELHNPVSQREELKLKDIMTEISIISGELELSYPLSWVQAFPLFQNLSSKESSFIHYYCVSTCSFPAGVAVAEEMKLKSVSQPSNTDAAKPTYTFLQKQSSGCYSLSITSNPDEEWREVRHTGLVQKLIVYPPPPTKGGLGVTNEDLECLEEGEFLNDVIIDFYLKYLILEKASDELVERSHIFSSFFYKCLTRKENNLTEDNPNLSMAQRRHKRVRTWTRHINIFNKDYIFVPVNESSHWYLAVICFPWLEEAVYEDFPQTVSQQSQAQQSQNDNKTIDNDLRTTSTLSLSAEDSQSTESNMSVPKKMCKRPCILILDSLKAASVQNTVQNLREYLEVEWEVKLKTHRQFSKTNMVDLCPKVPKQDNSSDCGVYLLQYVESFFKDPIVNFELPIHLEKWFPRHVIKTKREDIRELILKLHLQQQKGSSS

[13] = target: T7, Sentrin-specific protease 7; test: inhibition of human SENP7 cleavage activity – biochemical, luminescence, SAR follow-up (AID 504497); type: functional
Caspase-3 [14] = target: T4, Caspase-3; type: functional

CC1(C)CNC(=O)c2sc(NC(=O)c3ccccc3)nc2C1
AC50 (HeLa): 55 µM (active)

Nc1ccc(Cc2ccc(N)c(C(=O)O)c2)cc1C(=O)O
AC50 (CAAX prenyl protease 2 [1]): 32.3 µM (active)
AC50 (CAAX prenyl protease 2 [2]): 2.25 µM (active)
AC50 (Trypsin): 7.3 µM (active)
AC50 (Caspase-6): 37.8 µM (active)

Cc1ccc(OCc2cc(C(=O)NCc3ccc(OC(F)(F)F)cc3)no2)cn1
EC50 [3]: 0.792 µM (active)

Cc1cccc(NC(S)=NCC(c2cccnc2)N(C)C)c1 (stereo not given)
EC50 [4]: > 92.5 µM (inactive)
EC50 [5]: 0.0267 µM (active)
EC50 [6]: > 92.5 µM (inactive)
EC50 (Mu-type opioid receptor): 15.6 µM (inactive)

Cc1ccc(CNC(=O)c2cc(-c3ccccc3)nn2CC2CC(c3cccc([N+](=O)[O-])c3)=NO2)cc1 (stereo not given)
AC50 (CAAX prenyl protease 2 [2]): 30 µM (active)

C/C(=N/OC(=O)CC(C)C)c1cc(-c2ccc(Cl)cc2)no1
AC50 (HeLa): 58.7 µM (active)

Cc1ccc(NC(=O)C(=O)c2c[nH]c3ccccc23)cc1
IC50 (Caspase-3 [7]): 9.05 µM (active)
IC50 [8]: > 100 µM (inactive)
IC50 [9]: > 99 µM (inactive)
IC50 [10]: > 100 µM (inactive)
IC50 [11]: > 99 µM (inactive)
IC50 [12]: 2.41 µM (active)
IC50 [13]: 2.33 µM (active)
IC50 (Caspase-3 [14]): 18.6 µM (active)
